Measurements as given in EP4623928A1, “GLP-1R ANTAGONISTS FOR THE TREATMENT OF CANCER” (Fiorina, Paolo, priority 2024, dated 2025).

Experiments:
[1] = system: GLP-1R^pos and GLP-1R^neg CD3^+ T cells; assay: Seahorse bioenergetic analysis, GLP-1Rpos and GLP-1Rneg CD3+ T cells; type: cell-based, C57BL/6 mice; conditions: GLP-1R^pos CD3^+ T cells, Exe-4 (1 nM)
Experimental: Cellular Bioenergetics were analyzed using the Seahorse Extracellular Flux Analyzer Xfe96 (Agilent Technologies, Santa Clara, CA, United States), which simultaneously measures Oxygen Consumption Rate (OCR, pmolO2/min), ExtraCellular Acidification Rate (ECAR, mpH/min) and Proton Efflux Rate (PER, pmolH^+/min). For Seahorse experiments 150.000 cells either freshly isolated GLP-1R^pos or GLP-1R^neg CD3^+ T cells or activated with soluble anti-CD3/CD28 at 0.5 µg/ml each in the presence or not of Exe-4 (1 nM); in another setting untransduced mock CD3^+ T cells or pmY-GLP-1R CD3^+ T cells already activated with soluble anti-CD3/CD28 at 0.5 µg/ml each in the presence or not of Exe-4 (1 nM). Cells were resuspended in 50 µL assay medium (Agilent #103576-100 RPMI Medium pH7.4, supplemented with 10mM glucose, 2mM glutamine and 1mM Na-pyruvate) were seeded in each CellTak-precoated well of an Agilent Xfe96 Pro well plate. The cell plate was centrifuged 2 times at 40 × g (zero braking) for 1 minute. After centrifugation, 150 µL warm assay medium was gently added to each well. […]
Seahorse parameters were normalized to cell number in each well. To this purpose, at the end of the Seahorse analysis, cell nuclei were stained with Hoechst 33342 (1 µg/mL) for about 15 min, imaged and counted with Operetta CLS™ software Harmony, as previously described (43). […]

[2] = system: untransduced-mock and pmY-GLP-1R transduced CD3^+ T cells; assay: Proliferation, apoptosis and IFN-γ expression of untransduced-mock and pmY-GLP-1R transduced CD3+ T cells; type: cell-based, murine; conditions: Exe-4
Experimental: The mGLP-1R cDNA construct (Origene) was inserted into the pMY-IRES-GFP plasmid (Cell BioLabs, Inc., San Diego, CA). The Platinum-E Retroviral Packaging cell line was transfected with the pMY-IRES-GFP plasmid expressing GLP-1R using polybrene (Santa Cruz Biotechnology), and supernatant was collected. T cells were activated for 48 hours in the presence of soluble anti-CD3/CD28 at 0.5 µg/ml each in the presence of IL-2 (400 ng/ml) (R&D Systems), and viral supernatant was added. The upregulation of GLP-1R was assessed by FACS and western blot analysis.

[3] = system: CD3^+ T cells; assay: Phosphoproteomic array of CD3+ T cells; type: cell-based, murine; conditions: Exe-4 (1 nM), 24 hours, vs untreated
Experimental: Isolated CD3^+ T cells from splenocytes were treated with Exendin-4 (Exe-4) for 24hrs or left untreated. Total soluble proteins from both cell extracts, approximately 7×10^6 cells per conditions were used, all steps were performed using the Phospho Explorer Antibody Array kit (Full Moon Biosystems, PEX100) as recommended by the manufacturer (41). Next, soluble extracted proteins were biotinylated and were next incubated with a mixture of Cy3-streptavidin-detection buffer and the array slides were incubated on a rotating shaker for 30 min at RT. After, several washing steps, the array slides were allowed to dry by centrifugation. Dry array slides were analyzed by a slide-based microarray scanner as recommended by the manufacturer.

[4] = both untransduced-mock and pmY-GLP-1R transduced CD3^+ T cells

What does the source list for Exendin-4 [Exe-4]?
mitochondrial ATP production [1]: no effect; mitochondrial respiration (OCR values, maximal OXPHOS) [1]: slightly increased; IFN-γ expression [2, 4]: without any effect; proliferation [2, 4]: no effect; apoptosis ([2]; pmY-GLP-1R transduced CD3^+ T cells only): significantly increased; expression and activation of signalling molecules (phosphoproteomic arrays) [3]: altered the expression and the activation of several signalling molecules
